Data as given in ChEMBL document CHEMBL1201862, “PubChem BioAssay data set” (2004).
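Growth conditions: 96-well plates. Treatment: test compound, 48 hours, 5 concentrations. Analysis: linear interpolation between bracketing concentrations; unreached endpoints set to highest concentration. The concentration for 50% growth inhibition is given as GI50.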 Calls of active or inactive are those of the source. Rule as the data show it: active = GI50 up to about 1.1 µM and inactive = higher.

Legend:
Assay in all cases: NCI tumour cell line growth inhibition, 48 h
[1] = system: K562
[2] = system: HOP-62
[3] = system: SW-620
[4] = system: SNB-19
[5] = system: HL-60
[6] = system: SK-MEL-5
[7] = system: SN12C
[8] = system: SF-539
[9] = system: HCC 2998
[10] = system: A498
[11] = system: NCI-H226
[12] = system: OVCAR-5
[13] = system: RXF 393
[14] = system: M19-MEL
[15] = system: OVCAR-3
[16] = system: SK-OV-3

Measured: GI50

CCC1CN2CCc3cc(OC)c(OC)cc3C2CC1CC1c2cc(OC)c(OC)cc2CCN1C(=O)C1CCCN1C(=O)OCc1ccccc1 (configuration not stated)
inactive: [1] 16.2 µM | [2] 16.2 µM | [3] 14.8 µM | [4] 24.3 µM | [5] 13.1 µM | [6] 15.5 µM | [7] 16.3 µM | [8] 18.7 µM | [9] 16.3 µM | [10] 16.3 µM | [11] 16.1 µM | [12] 18.1 µM | [13] 10.4 µM | [14] 15.5 µM | [15] 16.2 µM

CC(=O)Nc1ccccc1-c1nc2ccccc2nc1-c1ccccc1
inactive: [1] > 100 µM | [2] > 100 µM | [3] > 100 µM | [4] > 100 µM | [5] > 100 µM | [7] > 100 µM | [16] > 100 µM | [8] > 100 µM | [9] > 100 µM | [10] > 100 µM | [13] > 100 µM | [14] > 100 µM | [15] > 100 µM

CC(C)C1CC2C(=O)N(c3ccccc3)C(=O)C2c2[nH]c3ccccc3c21 (configuration not stated)
inactive: [1] 4.85 µM | [2] 29.2 µM | [3] 8.26 µM | [5] 7.45 µM | [6] 73.8 µM | [16] 20.5 µM | [8] 13.8 µM | [9] > 100 µM | [10] 32 µM | [11] 16.2 µM | [12] > 100 µM | [13] 21.3 µM | [14] 56.4 µM | [15] 5.78 µM

CCCCCCC(=O)C/C(CCC(=O)N(Cc1ccccc1)Cc1ccccc1)=N\NC(N)=O
inactive: [1] > 100 µM | [2] > 100 µM | [3] > 100 µM | [4] > 100 µM | [5] > 100 µM | [6] > 100 µM | [7] > 100 µM | [16] > 100 µM | [8] > 100 µM | [9] > 100 µM | [10] > 100 µM | [11] > 100 µM | [12] > 100 µM | [13] > 100 µM | [14] > 100 µM | [15] > 100 µM

N#C/C(=C\c1ccccc1F)C(=O)c1ccccc1
inactive: [1] > 100 µM | [2] > 100 µM | [3] > 100 µM | [4] > 100 µM | [5] 66.7 µM | [6] > 100 µM | [7] > 100 µM | [16] > 100 µM | [8] > 100 µM | [9] > 100 µM | [10] > 100 µM | [12] > 100 µM | [14] > 100 µM | [15] > 100 µM

CCOC(=O)C1CCCCN1C(=O)OCc1ccccc1 (configuration not stated)
inactive: [1] > 100 µM | [2] > 100 µM | [3] > 100 µM | [4] > 100 µM | [5] 41 µM | [6] > 100 µM | [7] > 100 µM | [16] > 100 µM | [8] > 100 µM | [10] > 100 µM | [11] 27.3 µM | [12] > 100 µM | [13] > 100 µM | [14] > 100 µM | [15] > 100 µM

CCN(CC)C(=O)c1c(Cl)cc(N(CC)CC)oc1=O
inactive: [1] > 100 µM | [2] > 100 µM | [3] > 100 µM | [4] > 100 µM | [5] > 100 µM | [7] > 100 µM | [16] > 100 µM | [8] > 100 µM | [9] > 100 µM | [10] > 100 µM | [11] > 100 µM | [13] > 100 µM | [14] > 100 µM | [15] > 100 µM

COc1ccc(C(=O)C(c2ccc(OC)cc2)C2(O)C(=O)Nc3c2ccc(Cl)c3C)cc1 (configuration not stated)
inactive: [1] > 100 µM | [2] > 100 µM | [3] > 100 µM | [4] > 100 µM | [5] > 100 µM | [6] > 100 µM | [7] > 100 µM | [16] > 100 µM | [9] > 100 µM | [10] > 100 µM | [11] > 100 µM | [12] > 100 µM | [13] 94.2 µM | [14] > 100 µM | [15] > 100 µM

CCCCCCCCCCCC(=O)OCCOCCOCCOCCOCCOCc1ccc(OC)cc1
inactive: [1] > 100 µM | [2] > 100 µM | [3] > 100 µM | [4] > 100 µM | [5] 14.8 µM | [6] > 100 µM | [7] > 100 µM | [16] > 100 µM | [9] > 100 µM | [10] > 100 µM | [11] > 100 µM | [12] > 100 µM | [13] > 100 µM | [14] > 100 µM | [15] > 100 µM

CC(=O)OCC1OC(n2c(-c3ccc(N)cc3)cc(-c3ccco3)c(C#N)c2=O)C(OC(C)=O)C(OC(C)=O)C1OC(C)=O (configuration not stated)
inactive: [2] > 50 µM | [3] > 50 µM | [4] > 50 µM | [6] 8.93 µM | [7] > 50 µM | [16] > 50 µM | [8] 7.62 µM | [9] > 50 µM | [10] > 50 µM | [12] > 50 µM | [13] > 50 µM | [14] 18.7 µM | [15] > 50 µM

N#CC(/C(=N\NC(=O)c1ccncc1)C(=O)Nc1ccc([N+](=O)[O-])cc1[N+](=O)[O-])c1nc(-c2ccc(Br)cc2)cs1 (configuration not stated)
inactive: [1] > 100 µM | [2] > 100 µM | [3] > 100 µM | [4] > 100 µM | [5] > 100 µM | [6] > 100 µM | [16] > 100 µM | [8] > 100 µM | [9] > 100 µM | [10] > 100 µM | [12] > 100 µM | [14] > 100 µM | [15] > 100 µM

COC1(OC)CC2C(=O)N(Cc3ccccc3)C1C=C2S(=O)(=O)c1ccccc1 (configuration not stated)
inactive: [1] 22.5 µM | [2] 38.8 µM | [3] 15.2 µM | [4] 24 µM | [5] 11.7 µM | [6] 13.8 µM | [7] 16.4 µM | [16] 47.5 µM | [8] 17 µM | [9] 19.5 µM | [10] 20 µM | [11] 27.9 µM | [13] 12.7 µM | [14] 16 µM | [15] 14.8 µM

COS(=O)c1cc(Cl)cc(Cl)c1OC(=O)CSSCC(=O)Oc1c(Cl)cc(Cl)cc1S(=O)OC (configuration not stated)
inactive: [1] 20.4 µM | [2] > 10 µM | [3] 28.4 µM | [4] 5.24 µM | [5] 22.4 µM | [6] 17.4 µM | [7] 10.2 µM | [16] 51.3 µM | [8] 13.8 µM | [9] 21.6 µM | [10] 15.5 µM | [12] 16.7 µM | [13] 15.3 µM | [14] 20 µM | [15] 23.9 µM
